Reference: patent US11071735B2, “Treatment of inflammatory conditions and autoimmune diseases with glucose uptake inhibitors” (Kadmon Corporation, LLC, priority 2017, dated 2021)

Legend:
[1] = system: MOG-induced experimental autoimmune encephalitis; assay: mouse MOG-induced experimental autoimmune encephalitis (EAE) model; format: in vivo; conditions: compared to vehicle control
From the text: In FIG. 4, Example 2 is shown to have efficacy against an in vivo mouse model of inflammation, MOG-induced experimental autoimmune encephalitis. Example 2 both delays the onset and lowers the end clinical score of inflammation in this model.
Mouse Prophylactic MOG-EAE Model: Performed at Hooke laboratories.

[2] = system: GLUT; assay: glycolysis assay (oligomycin + Cell Titer-Glo ATP readout) in HT1080 cells; format: cell-based; conditions: 10 μM oligomycin, one hour, glycolytically-derived ATP
In short: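 HT1080 cells exposed for one hour to compound plus 10 μM oligomycin to block mitochondrial ATP, so remaining ATP reflects glycolysis. Glycolytic ATP read by CellTiter-Glo luminescence; IC50 derived from dose-response curves.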

[3] = system: markers of Teff and Treg cells; assay: flow cytometry of cytokines and lineage transcription factors in activated CD4 T cells; format: cell-based, human; conditions: 1 μM; CD4 T cells activated 48 hrs with IL-1β, TGF-β
Method: FIG. 7. […] FIG. 7A. CD4 T cells were activated for 48 hrs in the presence of IL-1β, TGF-β and 1 μM of the Example 2 compound. For the last 5 hrs, PMA/Ionomycin/Brefeldin A was added and intracellular staining for cytokines was performed. Flow cytometry was used to assess INFγ and IL-17A levels (gated on live cells). FIG. 7B. Cells were cultured and treated as in FIG. 7A, excluding PMA/Ionomycin/Brefeldin A treatment. Flow cytometry was used to assess levels of CD4 T cell lineage defining transcription factors.
GLUT1 and GLUT3 inhibitors downregulate the markers of T effector cells but not T regulatory cells. In, CD4 T cells were activated for 48 hrs in the presence of […], TGF-β and 1 μM of compound Example 2. […] Flow cytometry was used to assess INFγ and IL-17A levels (gated on live cells) and quantification of percent positive cells positive is shown in FIG. 7A. […]
T cell assays: Human CD4 T cells were purified using RossetteSep Human CD4 T cell Enrichment Cocktail. […] IL-17 levels were measured by ELISA (R&D systems, Human IL-17 Quantikine ELISA kit). Proliferation was measured by Cell Titer Glo (Promega). Intracellular staining was performed and analyzed using the Guava EasyCyte flow cytometer. […] Protein levels and phosphorylation status were assessed by western blot analysis using antibodies purchased from Cell Signaling.

[4] = system: MCP-1 secretion; assay: MCP-1 secretion of LPS-treated THP1 monocytes (ELISA); format: cell-based; conditions: THP1 cells, compound one hour prior to 16 hour 1 μg/ml LPS
Method: (§1) In FIG. 5A, THP1 cells were activated with 1 μg/ml LPS for 16 hrs prior to a one-hour glycolysis assay (Example 2+Oligomycin). In FIG. 5B, THP1 cells were treated with Example 2 one hour prior to a 16 hour treatment with 1 μg/ml LPS, after which MCP-1 secretion into the media was measured by ELISA (R&D systems) and cell number measured by Cell Titer Glo (Promega).
(§2) THP1 Monocyte assay: THP1 monocytic cancer cells were activated with 1 ug/ml LPS (Sigma-Aldrich). The previously described glycolysis assay was performed 16 hrs post-activation. For cytokine secretion, cells were pre-treated for one hour with GLUT inhibitors prior to 16 hours of 1 μg/ml LPS treatment.

[5] = system: THP1 monocytes; assay: glycolysis assay in LPS-activated THP1 monocytes; format: cell-based; conditions: 1 μg/ml LPS 16 hrs, then one-hour glycolysis assay with oligomycin
Method: as §1, §2

[6] = target: T1, GLUT3 (Homo sapiens, UniProt P11169); assay: glycolysis assay in DLD1 GLUT1−/− cells (rely on GLUT3); format: cell-based; conditions: DLD1-KO (GLUT1−/−) cells; 10 μM oligomycin, one hour
T1 construct: endogenous in cells; host or cells: DLD1 GLUT1−/− (knock-out) cancer cells
T1 sequence (P11169 1-496): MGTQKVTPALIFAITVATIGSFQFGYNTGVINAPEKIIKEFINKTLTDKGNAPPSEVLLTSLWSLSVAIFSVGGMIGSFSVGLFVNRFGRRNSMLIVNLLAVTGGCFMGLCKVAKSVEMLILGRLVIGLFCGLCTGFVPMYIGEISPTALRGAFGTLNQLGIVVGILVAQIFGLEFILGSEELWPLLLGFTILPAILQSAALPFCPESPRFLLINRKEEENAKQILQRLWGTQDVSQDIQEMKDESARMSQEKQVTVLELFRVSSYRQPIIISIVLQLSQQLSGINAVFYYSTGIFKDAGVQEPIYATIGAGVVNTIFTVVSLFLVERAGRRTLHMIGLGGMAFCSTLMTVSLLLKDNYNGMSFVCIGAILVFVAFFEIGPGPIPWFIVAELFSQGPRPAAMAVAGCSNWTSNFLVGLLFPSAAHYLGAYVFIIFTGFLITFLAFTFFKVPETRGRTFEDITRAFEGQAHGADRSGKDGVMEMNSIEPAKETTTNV
In short: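 Cells […] exposed for 1 h to inhibitor plus 10 μM oligomycin to block mitochondrial ATP; remaining glycolytic ATP read by CellTiter-Glo luminescence. IC50 derived from dose-response curves.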

- IC50 [2]: 149 nM
- IC50 [6]: 60.9 nM
Compound: CCOc1ccc2nc(-c3cccc(OCC(=O)NC(C)C)c3)nc(Nc3ccc(-c4cn[nH]c4)cc3)c2c1 [Ex. 2, 2-(3-(4-((4-(1H-pyrazol-4-yl)phenyl)amino)-6-ethoxyquinazolin-2-yl)phenoxy)-N-isopropylacetamide]
- end clinical score ([1]; 30 mg/kg p.o. daily): lowered the end clinical score
- onset of EAE ([1]; 30 mg/kg p.o. daily): delayed onset
- end clinical score ([1]; 100 mg/kg p.o. daily): lowered the end clinical score
- onset of EAE ([1]; 100 mg/kg p.o. daily): delayed onset
- markers of Teff and Treg cells [3]: downregulate markers of Teff but not Treg cells
- MCP-1 secretion [4]: inhibits cytokine/chemokine secretion
- glycolysis in LPS stimulated THP1 monocytes [5]: inhibit glycolysis
